The source of these data is PubChem BioAssay (NCI).

Molecules are shown by their SMILES.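 Each compound was tested at five concentrations against cells in 96-well plates for 48 hours. The concentration for full growth arrest is given as TGI.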 Where only a bound is given, the exact number is not on record here.

One experiment has as its system RXF 393 renal. Put plainly: growth of human tumour cells (NCI), 48 h.
In the case of `COc1ccc(CC2COc3cc(OC)cc(OC)c3C2=O)cc1` (centres undefined), the TGI was more than 100 µM.
`O=c1oc2ccccc2c(Nc2ccc3c(c2)Sc2ccccc2O3)c1[N+](=O)[O-]`: the TGI came out at 61.9 µM.

The next experiment deals with IGROV1 ovarian. Put plainly: growth of human tumour cells (NCI), 48 h.
As for `Clc1ccc(CCN(CCc2ccc(Cl)c(Cl)c2)CCN2CCCC2)cc1Cl`, the TGI is 2.93 µM.
With `Cc1c(-c2ccccc2)cc(O)c2nc3ccccc3n12`, the TGI was more than 100 µM.
For `Cc1ccc(C(=O)O)c(/C=C2\Cc3ccc(C)cc3C2=O)c1`, the TGI was more than 100 µM.
The compound `C=C(CCOC)CCC1CCCCC(CN(C)C)C1=O` (centres undefined) returned a TGI of more than 100 µM.
The compound `ONC1=Nc2cc(Cl)ccc2C(=S)N2CSCC12` (centres undefined) had a TGI of more than 100 µM.
Take `COc1ccc(/C=C2\N=C(N3CCCCC3)NC2=O)cc1`: the TGI was more than 100 µM.
Still for that read-out and setting: the same measure for `COc1c(=O)cc2cc[nH]c3cc[nH]c1c23`: more than 100 µM.
As for `CCCCC1(NN=C2CCCCC2)C(=O)N(c2ccccc2)N(c2ccccc2)C1=O`, the TGI is more than 100 µM.
Consider `CC(C)NC(=O)OCc1c2c(n(C)c1COC(=O)NC(C)C)-c1cc(Cl)c(Cl)cc1CC2`, for which the TGI was determined as 96 µM.
`CNc1ncccc1Nc1cc(=O)n2c3cccnc3n(C)c2c1` came in with a TGI of more than 100 µM.
Same read-out and setting: the same measure for `CCOC(=O)c1sc(=S)n(-c2ccc(Cl)cc2)c1-n1cc(-c2ccccc2)c(C#N)c1N`: 40.5 µM.
On to `COC1(OC)N=C(N)C2(C#N)C(c3ccccc3)NC3=C(CCC3)C12C#N` (centres undefined), for which the TGI was more than 100 µM.
`NC(N)=NS(=O)(=O)c1ccc(NNc2c3ccccc3nc3ccccc23)cc1`: the TGI came out at 81.7 µM.
`COC(=O)[C@@H]1C[C@H]2OC(=O)CC[C@]2(C)O[C@H]1[C@H]1O[C@@](C)(O)CCC[C@H]1C`: the TGI was more than 50 µM.
On the same count and under the same terms, the same measure for `CC(C)CCNC(=O)c1ccc(CNC(=O)/C=C/c2cccc(Oc3ccccc3)c2)cc1`: more than 100 µM; for `COc1cc2c(cc1OCCCCCCCCCCN1C(=O)c3cccc4cccc(c34)C1=O)N=C[C@@H]1CCCN1C2=O`: 18.4 µM.
As to `O=C(NC1=C(Cl)C(=O)c2ccccc2C1=O)c1ccccc1`, the TGI was more than 100 µM.
In turn, `C/C(=N\NS(=O)(=O)c1ccc(C)cc1)c1ccccn1` yielded a TGI of more than 100 µM.
`Cc1c(N2C(=O)C(Cl)C2/C=C/c2ccccc2)c(=O)n(-c2ccccc2)n1C` (centres undefined): the TGI amounted to 42.8 µM.
Compound `C=CCn1c(N)c(C#N)c(C#N)c1CCC` gave a TGI of more than 100 µM.
In turn, `C#CCn1c(=O)c(I)cn(/C(=C/C(=O)OCC)C(=O)OCC)c1=O` yielded a TGI of 38.3 µM.
Same read-out and setting: for `COc1ccc(CC2COc3cc(OC)cc(OC)c3C2=O)cc1` (centres undefined) the value was more than 100 µM; for `O=c1oc2ccccc2c(Nc2ccc3c(c2)Sc2ccccc2O3)c1[N+](=O)[O-]`, more than 100 µM.

For a further experiment, the system named is DU-145 prostate. Put plainly: growth of human tumour cells (NCI), 48 h.
Regarding `Clc1ccc(CCN(CCc2ccc(Cl)c(Cl)c2)CCN2CCCC2)cc1Cl`, the TGI turned out to be 4.3 µM.
For `Cc1c(-c2ccccc2)cc(O)c2nc3ccccc3n12`, the TGI is more than 100 µM.
`Cc1ccc(C(=O)O)c(/C=C2\Cc3ccc(C)cc3C2=O)c1` yielded a TGI of more than 100 µM.
As for `C=C(CCOC)CCC1CCCCC(CN(C)C)C1=O` (centres undefined), the TGI is more than 100 µM.
In turn, `ONC1=Nc2cc(Cl)ccc2C(=S)N2CSCC12` (centres undefined) had a TGI of more than 100 µM.
As for `COc1ccc(/C=C2\N=C(N3CCCCC3)NC2=O)cc1`, the TGI is more than 100 µM.
The compound `COc1c(=O)cc2cc[nH]c3cc[nH]c1c23` yielded a TGI of more than 100 µM.
`CCCCC1(NN=C2CCCCC2)C(=O)N(c2ccccc2)N(c2ccccc2)C1=O` returned a TGI of more than 100 µM.
The same measure, in the same setting: the same measure for `CC(C)NC(=O)OCc1c2c(n(C)c1COC(=O)NC(C)C)-c1cc(Cl)c(Cl)cc1CC2`: more than 100 µM; for `CNc1ncccc1Nc1cc(=O)n2c3cccnc3n(C)c2c1`: more than 100 µM; for `COc1cc2c(cc1O)c(O)cc1c3cc(OC)c(OC)cc3c[n+](C)c21`: more than 43.7 µM.
Same read-out and setting: for `CCOC(=O)c1sc(=S)n(-c2ccc(Cl)cc2)c1-n1cc(-c2ccccc2)c(C#N)c1N` the value was 21.2 µM.
`COC1(OC)N=C(N)C2(C#N)C(c3ccccc3)NC3=C(CCC3)C12C#N` (centres undefined) showed a TGI of more than 100 µM.
On to `NC(N)=NS(=O)(=O)c1ccc(NNc2c3ccccc3nc3ccccc23)cc1`, for which the TGI came to 21.3 µM.
`COC(=O)[C@@H]1C[C@H]2OC(=O)CC[C@]2(C)O[C@H]1[C@H]1O[C@@](C)(O)CCC[C@H]1C` showed a TGI of more than 50 µM.
On the same count and under the same terms, for `CC(C)CCNC(=O)c1ccc(CNC(=O)/C=C/c2cccc(Oc3ccccc3)c2)cc1` the value was more than 100 µM; for `COc1cc2c(cc1OCCCCCCCCCCN1C(=O)c3cccc4cccc(c34)C1=O)N=C[C@@H]1CCCN1C2=O`, 34.4 µM.
The same measure, in the same setting: for `O=C(NC1=C(Cl)C(=O)c2ccccc2C1=O)c1ccccc1` the value was more than 100 µM.
`C/C(=N\NS(=O)(=O)c1ccc(C)cc1)c1ccccn1`: the TGI was more than 100 µM.
As for `Cc1c(N2C(=O)C(Cl)C2/C=C/c2ccccc2)c(=O)n(-c2ccccc2)n1C` (centres undefined), the TGI is more than 100 µM.
The compound `C=CCn1c(N)c(C#N)c(C#N)c1CCC` showed a TGI of more than 100 µM.
Turning to `C#CCn1c(=O)c(I)cn(/C(=C/C(=O)OCC)C(=O)OCC)c1=O`, the TGI is 23.9 µM.
As for `COc1ccc(CC2COc3cc(OC)cc(OC)c3C2=O)cc1` (centres undefined), the TGI amounted to 77.2 µM.
As for `O=c1oc2ccccc2c(Nc2ccc3c(c2)Sc2ccccc2O3)c1[N+](=O)[O-]`, the TGI was more than 100 µM.

The test system of the next experiment is SK-MEL-28 melanoma. Put plainly: growth of human tumour cells (NCI), 48 h.
On to `Cc1c(-c2ccccc2)cc(O)c2nc3ccccc3n12`, for which the TGI is more than 100 µM.
`Cc1ccc(C(=O)O)c(/C=C2\Cc3ccc(C)cc3C2=O)c1` showed a TGI of more than 100 µM.
`C=C(CCOC)CCC1CCCCC(CN(C)C)C1=O` (centres undefined) yielded a TGI of more than 100 µM.
For `ONC1=Nc2cc(Cl)ccc2C(=S)N2CSCC12` (centres undefined), the TGI was more than 100 µM.
Consider `COc1ccc(/C=C2\N=C(N3CCCCC3)NC2=O)cc1`, for which the TGI is more than 100 µM.
Take `COc1c(=O)cc2cc[nH]c3cc[nH]c1c23`: the TGI was more than 100 µM.
`CCCCC1(NN=C2CCCCC2)C(=O)N(c2ccccc2)N(c2ccccc2)C1=O` gave a TGI of more than 100 µM.
`CC(C)NC(=O)OCc1c2c(n(C)c1COC(=O)NC(C)C)-c1cc(Cl)c(Cl)cc1CC2` had a TGI of more than 100 µM.
`CNc1ncccc1Nc1cc(=O)n2c3cccnc3n(C)c2c1` came in with a TGI of more than 100 µM.
For `COc1cc2c(cc1O)c(O)cc1c3cc(OC)c(OC)cc3c[n+](C)c21`, the TGI is more than 100 µM.
Take `CCOC(=O)c1sc(=S)n(-c2ccc(Cl)cc2)c1-n1cc(-c2ccccc2)c(C#N)c1N`: the TGI was more than 100 µM.
`COC1(OC)N=C(N)C2(C#N)C(c3ccccc3)NC3=C(CCC3)C12C#N` (centres undefined): the TGI is more than 100 µM.
As to `NC(N)=NS(=O)(=O)c1ccc(NNc2c3ccccc3nc3ccccc23)cc1`, the TGI was 29.2 µM.
Still for that read-out and setting: for `COC(=O)[C@@H]1C[C@H]2OC(=O)CC[C@]2(C)O[C@H]1[C@H]1O[C@@](C)(O)CCC[C@H]1C` the value was more than 50 µM.
Still for that read-out and setting: for `CC(C)CCNC(=O)c1ccc(CNC(=O)/C=C/c2cccc(Oc3ccccc3)c2)cc1` the value was more than 100 µM.
On the same count and under the same terms, for `COc1cc2c(cc1OCCCCCCCCCCN1C(=O)c3cccc4cccc(c34)C1=O)N=C[C@@H]1CCCN1C2=O` the value was 33 µM; for `O=C(NC1=C(Cl)C(=O)c2ccccc2C1=O)c1ccccc1`, more than 100 µM; for `C/C(=N\NS(=O)(=O)c1ccc(C)cc1)c1ccccn1`, more than 100 µM.
Take `C#CCn1c(=O)c(I)cn(/C(=C/C(=O)OCC)C(=O)OCC)c1=O`: the TGI turned out to be 26.2 µM.
The compound `COc1ccc(CC2COc3cc(OC)cc(OC)c3C2=O)cc1` (centres undefined) yielded a TGI of more than 100 µM.
